US7504517B2, “Kv1.5 potassium channel inhibitors” (Wyeth, priority 2006, dated 2009)

Tests used:
[1] = target: T1, Kv1.5 (Homo sapiens, UniProt P22460); test: Kv1.5 Patch Clamp EP; type: cell-based; conditions: 1.0 μM, single point; whole cell patch clamp, Kv1.5 stably over expressed in HEK or LTK- cells
T1 construct: expressed in transfected cells; host or cells: HEK or LTK- cells
Experimental: The external solution is standard Tyrodes solution. […] Inhibition was measured at the end of the 1 second pulses and expressed relative to controls. Initial Kv1.5 inhibition is estimated by single point determinations done at 1 μM.

[2] = test system: L-type calcium channels; test: FLIPR L-Type Calcium Channel Assay; type: cell-based, murine; conditions: HL-1 cells expressing endogenous L-type calcium channels; calcium influx after 20 mM KCl; read-out: L-type Ca^2+ IC50
Experimental: 50 μL per well test compounds are added to the plates and further incubated for 15 min. in a 5% CO2 37° C. incubator. All final solutions contain the anion exchange inhibitor, probenecid (2.5 mM). The 96-well plates are then placed in the center position of the FLIPR 1 (Fluorometric Imaging Plate Reader, Molecular Devices Corporation). Cell monolayers in each well are simultaneously illuminated at 488 nm with an Argon ion laser, and fluorescence emission is monitored using a 510-570 nm bandpass filter and a cooled CCD camera. To depolarize the plasma membrane and activate L-type calcium channels, 50 μL per well of 20 mM KCl (final concentration) are dispensed simultaneously to all 96 wells using the FLIPR's automatic 96-well pipettor. Fluorescence measurements are captured for 5 min. following KCl addition. Calcium influx, expressed as % control, is calculated for each concentration of test compound and concentration-response curves and IC50 values are generated using GraphPad Prism 4.0.

T1 sequence (P22460 whole entry): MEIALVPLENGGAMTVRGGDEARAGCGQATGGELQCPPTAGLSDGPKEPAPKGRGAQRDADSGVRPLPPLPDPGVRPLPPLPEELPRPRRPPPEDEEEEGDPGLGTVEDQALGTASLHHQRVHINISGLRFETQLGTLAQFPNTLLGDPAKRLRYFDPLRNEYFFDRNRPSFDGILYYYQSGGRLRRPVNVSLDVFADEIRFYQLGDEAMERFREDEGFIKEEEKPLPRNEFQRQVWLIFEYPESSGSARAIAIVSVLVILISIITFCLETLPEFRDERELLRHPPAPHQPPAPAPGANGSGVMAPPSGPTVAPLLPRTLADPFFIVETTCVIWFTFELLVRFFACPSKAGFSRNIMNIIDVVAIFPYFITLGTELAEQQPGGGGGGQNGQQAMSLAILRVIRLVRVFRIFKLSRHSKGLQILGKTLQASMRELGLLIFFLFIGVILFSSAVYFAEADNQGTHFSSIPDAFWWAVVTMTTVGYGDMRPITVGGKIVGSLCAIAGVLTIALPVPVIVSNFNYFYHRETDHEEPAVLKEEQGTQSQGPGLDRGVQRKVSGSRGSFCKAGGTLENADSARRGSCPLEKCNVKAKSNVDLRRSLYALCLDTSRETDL

SMILES | inhibition at 1 µM [1] [%] | IC50 [2] [µM]
COc1ccc(CCN2C(=O)N(NS(=O)(=O)CC(=O)N(C)C)CC2c2ccc(OC)cc2)cc1 (centres unmarked) [Compound 55, 1-[[2-(Dimethylamino)-2-oxoethyl]sulfonylamino]-3-[2-(4-methoxyphenyl)-ethyl]-4-(4-methoxyphenyl)-2-imidazolidinone] | 29 | 29
CCCCS(=O)(=O)NN1CC(c2ccc(C(C)(C)C)cc2)N(CCc2ccc(OC)cc2)C1=O (centres unmarked) [Compound 32, 1-(Butylsulfonylamino)-3-[(4-methoxyphenyl)-ethyl]-4-[4-(tert-butyl)phenyl]-2-imidazolidinone] | 69 | 6.7
CCCCS(=O)(=O)NN1CC(c2ccc(C3CC3)cc2)N(CCc2ccc(OC)cc2)C1=O (centres unmarked) [Compound 31, 1-(Butylsulfonylamino)-3-[(4-methoxyphenyl)ethyl]-4-(4-cyclopropylphenyl)-2-imidazolidinone] | 84 | 4
COc1ccc(CCN2C(=O)N(N)CC2C2(c3ccccc3)CC2)cc1 (centres unmarked) [Compound 156, 1-amino-3-[2-(4-methoxyphenyl)ethyl]-4-(1-phenylcyclopropyl)imidazolidin-2-one] | 7 | –
COc1ccc(CCN2C(=O)N(N)CC2c2ccc(C(C)(C)C)cc2)cc1 (centres unmarked) [Compound 2, 1-Amino-4-[4-(tert-butyl)phenyl]-3-[2-(4-methoxyphenyl)ethyl]-2-imidazolidinone] | 46 | –
COc1ccc(CCN2C(=O)N(NS(C)(=O)=O)CC2c2ccc(OC)nc2)cc1 (centres unmarked) [Compound 149, N-{3-[2-(4-methoxyphenyl)ethyl]-4-(6-methoxypyridin-3-yl)-2-oxoimidazolidin-1-yl}methanesulfonamide] | 9 | –
COc1ccc(CN2C(=O)N(NS(C)(=O)=O)CC2c2ccc(C3CC3)cc2)cc1 (centres unmarked) [Compound 19, 1-(Methylsulfonylamino)-3-[(4-methoxyphenyl)methyl]-4-(4-cyclopropylphenyl)-2-imidazolidinone] | 27 | –
COc1ccc(CCN2C(=O)N(NS(=O)(=O)c3cccnc3)CC2c2ccc(OC)cc2)cc1 (centres unmarked) [Compound 62, 1-[(Pyridin-3-yl)sulfonylamino]-3-[2-(4-methoxyphenyl)ethyl]-4-(4-methoxyphenyl)-2-imidazolidinone] | 26 | –
COc1ccc(CCN2C(=O)N(NS(N)(=O)=O)CC2c2ccc(OC)cc2)cc1 (centres unmarked) [Compound 167, N-{4-(4-methoxyphenyl)-3-[2-(4-methoxyphenyl)ethyl]-2-oxoimidazolidin-1-yl}sulfamide] | 36 | –
COc1ccc(CCN2C(=O)N(NC(N)=O)CC2c2ccc(C)c(C)c2)cc1 (centres unmarked) [Compound 70, {2-Oxo-3-[2-(4-methoxyphenyl)ethyl]-4-(3,4-dimethylphenyl)-imidazolidin-1-yl}-urea] | 22 | –
COc1ccc(CCN2C(=O)N(NC(=O)c3cnccn3)CC2c2ccc(C(C)(C)C)cc2)cc1 (centres unmarked) [Compound 147, N-{4-(4-tert-butylphenyl)-3-[2-(4-methoxyphenyl)ethyl]-2-oxoimidazolidin-1-yl}pyrazine-2-carboxamide] | 42 | –
COc1ccc(CCN2C(=O)N(NS(=O)(=O)CC(=O)OCC3c4ccccc4-c4ccccc43)CC2c2ccc(C3CC3)cc2)cc1 (centres unmarked) [Compound 102, 1-[[2-(9H-fluoren-9-ylmethoxy)-2-oxoethyl]sulfonylamino]-3-[2-(4-methoxyphenyl)ethyl]-4-(4-cyclopropylphenyl)-2-imidazolidinone] | 6 | –
COc1ccc(CCN2C(=O)N(N)CC2c2ccc(OC(F)(F)F)cc2)cc1 (centres unmarked) [Compound 110, 1-amino-3-[2-(4-methoxyphenyl)ethyl]-4-[4-(trifluoromethoxy)phenyl]imidazolidin-2-one] | 7 | –
COc1ccc(CCN2C(=O)N(NS(C)(=O)=O)CC2Cc2ccc(F)cc2)cc1 (centres unmarked) [Compound 120, N-{4-(4-fluorobenzyl)-3-[2-(4-methoxyphenyl)ethyl]-2-oxoimidazolidin-1-yl}methanesulfonamide] | 5 | –
COc1ccc(CCN2C(=O)N(N)CC2Cc2ccc(F)cc2)cc1 (centres unmarked) [Compound 129, 1-amino-4-(4-fluorobenzyl)-3-[2-(4-methoxyphenyl)ethyl]imidazolidin-2-one] | 4 | –
COCCOc1ccc(C2CN(NS(C)(=O)=O)C(=O)N2CCc2ccc(OC)cc2)cc1 (centres unmarked) [Compound 151, N-{4-[4-(2-methoxyethoxy)phenyl]-3-[2-(4-methoxyphenyl)ethyl]-2-oxoimidazolidin-1-yl}methanesulfonamide] | 8 | –

SMILES | inhibition at 1 µM [1] [%] | IC50 [2] [µM]
COc1ccc(CCN2C(=O)N(N3CCCS3(=O)=O)CC2c2ccc(C3CC3)cc2)cc1 (centres unmarked) [Compound 124, 4-(4-cyclopropylphenyl)-1-(1,1-dioxidoisothiazolidin-2-yl)-3-[2-(4-methoxyphenyl)ethyl]imidazolidin-2-one] | 38 | –
COc1ccc(CCN2C(=O)N(NS(C)(=O)=O)CC2c2ccc3ncccc3c2)cc1 (centres unmarked) [Compound 143, N-{3-[2-(4-methoxyphenyl)ethyl]-2-oxo-4-quinolin-6-ylimidazolidin-1-yl}methanesulfonamide] | 21 | –
COc1ccc(CCN2C(=O)N(NCc3ccccn3)CC2c2ccc(C)c(C)c2)cc1 (centres unmarked) [Compound 93, 1-[(Pyridin-2-ylmethyl)amino]-3-[2-(4-methoxyphenyl)ethyl]-4-(3,4-dimethylphenyl)-2-imidazolidinone] | 46 | –
COc1ccc(CCCN2C(=O)N(NS(=O)(=O)CS(C)(=O)=O)CC2c2ccc(OC)cc2)cc1 (centres unmarked) [Compound 126, N-{4-(4-methoxyphenyl)-3-[3-(4-methoxyphenyl)propyl]-2-oxoimidazolidin-1-yl}-1-(methylsulfonyl)methanesulfonamide] | 46 | –
COc1ccc(CCN2C(=O)N(NS(C)(=O)=O)CC2c2ccc3c(c2)OCO3)cc1 (centres unmarked) [Compound 15, 1-(Methylsulfonylamino)-3-[2-(4-methoxyphenyl)ethyl]-4-(benzo[1,3]dioxol-5-yl)-2-imidazolidinone] | 46 | –
COc1ccc(C2CN(N)C(=O)N2CCc2ccc(OC(F)F)cc2)cc1 (centres unmarked) [Compound 154, 1-amino-3-{2-[4-(difluoromethoxy)phenyl]ethyl}-4-(4-methoxyphenyl)imidazolidin-2-one] | 7 | –
CNC(=O)N1CCN(N2CC(c3ccc(C(C)(C)C)cc3)N(CCc3ccc(OC)cc3)C2=O)CC1 (centres unmarked) [Compound 117, 4-{4-(4-tert-butylphenyl)-3-[2-(4-methoxyphenyl)ethyl]-2-oxoimidazolidin-1-yl}-N-methylpiperazine-1-carboxamide] | 19 | –
COc1ccc(CCCN2C(=O)N(N)CC2c2ccc(OC)cc2)cc1 (centres unmarked) [Compound 3, 1-Amino-4-(4-methoxyphenyl)-3-[3-(4-methoxyphenyl)propyl]-2-imidazolidinone] | 13 | –
COc1ccc(CCN2C(=O)N(NS(=O)(=O)Cc3cccnc3)CC2C2(c3ccccc3)CC2)cc1 (centres unmarked) [Compound 134, N-{3-[2-(4-methoxyphenyl)ethyl]-2-oxo-4-(1-phenylcyclopropyl)imidazolidin-1-yl}-1-pyridin-3-ylmethanesulfonamide] | 22 | –
COc1ccc(CCN2C(=O)N(NS(C)(=O)=O)CC2c2ccc(OC)c(OC)c2)cc1 (centres unmarked) [Compound 158, N-{4-(3,4-dimethoxyphenyl)-3-[2-(4-methoxyphenyl)ethyl]-2-oxoimidazolidin-1-yl}methanesulfonamide] | 10 | –
COc1ccc(CCN2C(=O)N(N3CCN(C(N)=O)CC3)CC2c2ccc(C(C)(C)C)cc2)cc1 (centres unmarked) [Compound 150, 4-{4-(4-tert-butylphenyl)-3-[2-(4-methoxyphenyl)ethyl]-2-oxoimidazolidin-1-yl}piperazine-1-carboxamide] | 17 | –
CCOc1ccc(CCN2C(=O)N(NS(C)(=O)=O)CC2c2ccc(OC)cc2)cc1 (centres unmarked) [Compound 113, N-{3-[2-(4-ethoxyphenyl)ethyl]-4-(4-methoxyphenyl)-2-oxoimidazolidin-1-yl}methanesulfonamide] | 5 | –
COc1ccc(CCN2C(=O)N(N3CCN(C(=O)N(C)C)CC3)CC2c2ccc(C(C)(C)C)cc2)cc1 (centres unmarked) [Compound 130, 4-{4-(4-tert-butylphenyl)-3-[2-(4-methoxyphenyl)ethyl]-2-oxoimidazolidin-1-yl}-N,N-dimethylpiperazine-1-carboxamide] | 37 | –
CCC1(CC)CN(NS(=O)(=O)Cc2cccnc2)C(=O)N1CCc1ccc(OC)cc1 [Compound 162, N-{4,4-diethyl-3-[2-(4-methoxyphenyl)ethyl]-2-oxoimidazolidin-1-yl}-1-pyridin-3-ylmethanesulfonamide] | 8 | –
COc1ccc(C2CN(NS(C)(=O)=O)C(=O)N2CCc2ccc(OC(F)(F)F)cc2)cc1 (centres unmarked) [Compound 152, N-[4-(4-methoxyphenyl)-2-oxo-3-{2-[4-(trifluoromethoxy)phenyl]ethyl}imidazolidin-1-yl]methanesulfonamide] | 16 | –
CN(C)CCOc1ccc(CCN2C(=O)N(NS(C)(=O)=O)CC2c2ccc(C(C)(C)C)cc2)cc1 (centres unmarked) [Compound 118, N-[4-(4-tert-butylphenyl)-3-(2-{4-[2-(dimethylamino)ethoxy]phenyl}ethyl)-2-oxoimidazolidin-1-yl]methanesulfonamide] | 9 | –
